# Measurements: PubChem BioAssay (NCI)
#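 Each compound was tested at five concentrations against cells in 96-well plates for 48 hours. GI50: concentration for 50% inhibition of growth. TGI denotes the concentration required for complete inhibition of growth.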
# How the values were obtained:
# Experiment in all cases: NCI tumour cell line growth inhibition, 48 h
# 786-0 renal = tested on: 786-0 renal
# A498 renal = tested on: A498 renal
# A549 NSCLC = tested on: A549 NSCLC
# ACHN renal = tested on: ACHN renal
# BT-549 breast = tested on: BT-549 breast
# CAKI-1 renal = tested on: CAKI-1 renal
# CCRF-CEM leukemia = tested on: CCRF-CEM leukemia
# COLO 205 colon = tested on: COLO 205 colon
# DU-145 prostate = tested on: DU-145 prostate
# HCC-2998 colon = tested on: HCC-2998 colon
# HCT-116 colon = tested on: HCT-116 colon
# HCT-15 colon = tested on: HCT-15 colon
# HL-60(TB) leukemia = tested on: HL-60(TB) leukemia
# HOP-62 NSCLC = tested on: HOP-62 NSCLC
# HOP-92 NSCLC = tested on: HOP-92 NSCLC
# HS 578T breast = tested on: HS 578T breast
# HT29 colon = tested on: HT29 colon
# IGROV1 ovarian = tested on: IGROV1 ovarian
# K-562 leukemia = tested on: K-562 leukemia
# KM12 colon = tested on: KM12 colon
# LOX IMVI melanoma = tested on: LOX IMVI melanoma
# M14 melanoma = tested on: M14 melanoma
# MALME-3M melanoma = tested on: MALME-3M melanoma
# MCF7 breast = tested on: MCF7 breast
# MDA-MB-231 breast = tested on: MDA-MB-231 breast
# MDA-MB-435 = tested on: MDA-MB-435
# MOLT-4 leukemia = tested on: MOLT-4 leukemia
# NCI-H226 lung = tested on: NCI-H226 lung
# NCI-H23 lung = tested on: NCI-H23 lung
# NCI-H460 lung = tested on: NCI-H460 lung
# NCI-H522 lung = tested on: NCI-H522 lung
# NCI/ADR-RES ovarian = tested on: NCI/ADR-RES ovarian
# OVCAR-3 ovarian = tested on: OVCAR-3 ovarian
# OVCAR-4 ovarian = tested on: OVCAR-4 ovarian
# OVCAR-5 ovarian = tested on: OVCAR-5 ovarian
# OVCAR-8 ovarian = tested on: OVCAR-8 ovarian
# PC-3 prostate = tested on: PC-3 prostate
# RPMI-8226 leukemia = tested on: RPMI-8226 leukemia
# RXF 393 renal = tested on: RXF 393 renal
# SF-268 CNS = tested on: SF-268 CNS
# SF-295 CNS = tested on: SF-295 CNS
# SF-539 CNS = tested on: SF-539 CNS
# SK-MEL-2 melanoma = tested on: SK-MEL-2 melanoma
# SK-MEL-28 melanoma = tested on: SK-MEL-28 melanoma
# SK-MEL-5 melanoma = tested on: SK-MEL-5 melanoma
# SK-OV-3 ovarian = tested on: SK-OV-3 ovarian
# SN12C renal = tested on: SN12C renal
# SNB-19 CNS = tested on: SNB-19 CNS
# SNB-75 CNS = tested on: SNB-75 CNS
# SR leukemia = tested on: SR leukemia
# SW-620 colon = tested on: SW-620 colon
# T-47D breast = tested on: T-47D breast
# TK-10 renal = tested on: TK-10 renal
# U251 CNS = tested on: U251 CNS
# UACC-257 melanoma = tested on: UACC-257 melanoma
# UACC-62 melanoma = tested on: UACC-62 melanoma
# UO-31 renal = tested on: UO-31 renal
structure (smiles),measurement,setting,value
Cn1cc(C2=C(c3cn(CCCCC(=N)N)c4ccccc34)C(=O)NC2=O)c2ccccc21,GI50,786-0 renal,> 25 µM
same,TGI,786-0 renal,> 25 µM
same,GI50,A498 renal,> 25 µM
same,TGI,A498 renal,> 25 µM
same,GI50,A549 NSCLC,> 25 µM
same,TGI,A549 NSCLC,> 25 µM
same,GI50,ACHN renal,> 25 µM
same,TGI,ACHN renal,> 25 µM
same,GI50,BT-549 breast,> 25 µM
same,TGI,BT-549 breast,> 25 µM
same,GI50,CAKI-1 renal,> 25 µM
same,TGI,CAKI-1 renal,> 25 µM
same,GI50,CCRF-CEM leukemia,11.5 µM
same,TGI,CCRF-CEM leukemia,> 25 µM
same,GI50,COLO 205 colon,11.8 µM
same,TGI,COLO 205 colon,> 25 µM
same,GI50,DU-145 prostate,> 25 µM
same,TGI,DU-145 prostate,> 25 µM
same,GI50,HCC-2998 colon,> 25 µM
same,TGI,HCC-2998 colon,> 25 µM
same,GI50,HCT-116 colon,17.5 µM
same,TGI,HCT-116 colon,> 25 µM
same,GI50,HCT-15 colon,> 25 µM
same,TGI,HCT-15 colon,> 25 µM
same,GI50,HL-60(TB) leukemia,16.7 µM
same,TGI,HL-60(TB) leukemia,> 25 µM
same,GI50,HOP-62 NSCLC,> 25 µM
same,TGI,HOP-62 NSCLC,> 25 µM
same,GI50,HOP-92 NSCLC,> 25 µM
same,TGI,HOP-92 NSCLC,> 25 µM
same,GI50,HS 578T breast,> 25 µM
same,TGI,HS 578T breast,> 25 µM
same,GI50,HT29 colon,> 22.9 µM
same,TGI,HT29 colon,> 25 µM
same,GI50,IGROV1 ovarian,> 21.9 µM
same,TGI,IGROV1 ovarian,> 25 µM
same,GI50,K-562 leukemia,13.5 µM
same,TGI,K-562 leukemia,> 25 µM
same,GI50,KM12 colon,20.3 µM
same,TGI,KM12 colon,> 25 µM
same,GI50,LOX IMVI melanoma,> 25 µM
same,TGI,LOX IMVI melanoma,> 25 µM
same,GI50,M14 melanoma,> 25 µM
same,TGI,M14 melanoma,> 25 µM
same,GI50,MALME-3M melanoma,> 25 µM
same,TGI,MALME-3M melanoma,> 25 µM
same,GI50,MCF7 breast,10.9 µM
same,TGI,MCF7 breast,> 25 µM
same,GI50,MDA-MB-231 breast,> 25 µM
same,TGI,MDA-MB-231 breast,> 25 µM
same,GI50,MDA-MB-435,10.5 µM
same,TGI,MDA-MB-435,> 25 µM
same,GI50,MOLT-4 leukemia,22.1 µM
same,TGI,MOLT-4 leukemia,> 25 µM
same,GI50,NCI-H226 lung,> 25 µM
same,TGI,NCI-H226 lung,> 25 µM
same,GI50,NCI-H23 lung,> 25 µM
same,TGI,NCI-H23 lung,> 25 µM
same,GI50,NCI-H460 lung,> 23.8 µM
same,TGI,NCI-H460 lung,> 25 µM
same,GI50,NCI-H522 lung,18.6 µM
same,TGI,NCI-H522 lung,> 25 µM
same,GI50,NCI/ADR-RES ovarian,> 25 µM
same,TGI,NCI/ADR-RES ovarian,> 25 µM
same,GI50,OVCAR-3 ovarian,> 23.7 µM
same,TGI,OVCAR-3 ovarian,> 25 µM
same,GI50,OVCAR-4 ovarian,> 25 µM
same,TGI,OVCAR-4 ovarian,> 25 µM
same,GI50,OVCAR-5 ovarian,> 25 µM
same,TGI,OVCAR-5 ovarian,> 25 µM
same,GI50,OVCAR-8 ovarian,> 25 µM
same,TGI,OVCAR-8 ovarian,> 25 µM
same,GI50,PC-3 prostate,> 25 µM
same,TGI,PC-3 prostate,> 25 µM
same,GI50,RPMI-8226 leukemia,> 25 µM
same,TGI,RPMI-8226 leukemia,> 25 µM
same,GI50,RXF 393 renal,> 25 µM
same,TGI,RXF 393 renal,> 25 µM
same,GI50,SF-268 CNS,> 25 µM
same,TGI,SF-268 CNS,> 25 µM
same,GI50,SF-295 CNS,> 13.7 µM
same,TGI,SF-295 CNS,> 25 µM
same,GI50,SF-539 CNS,> 21.6 µM
same,TGI,SF-539 CNS,> 25 µM
same,GI50,SK-MEL-2 melanoma,12.6 µM
same,TGI,SK-MEL-2 melanoma,> 25 µM
same,GI50,SK-MEL-28 melanoma,> 25 µM
same,TGI,SK-MEL-28 melanoma,> 25 µM
same,GI50,SK-MEL-5 melanoma,> 23.6 µM
same,TGI,SK-MEL-5 melanoma,> 25 µM
same,GI50,SK-OV-3 ovarian,> 25 µM
same,TGI,SK-OV-3 ovarian,> 25 µM
same,GI50,SN12C renal,> 25 µM
same,TGI,SN12C renal,> 25 µM
same,GI50,SNB-19 CNS,21.8 µM
same,TGI,SNB-19 CNS,> 25 µM
same,GI50,SNB-75 CNS,1.65 µM
same,TGI,SNB-75 CNS,> 25 µM
same,GI50,SR leukemia,11.1 µM
same,TGI,SR leukemia,> 25 µM
same,GI50,SW-620 colon,> 25 µM
same,TGI,SW-620 colon,> 25 µM
same,GI50,T-47D breast,> 25 µM
same,TGI,T-47D breast,> 25 µM
same,GI50,TK-10 renal,> 25 µM
same,TGI,TK-10 renal,> 25 µM
same,GI50,U251 CNS,17.2 µM
same,TGI,U251 CNS,> 25 µM
same,GI50,UACC-257 melanoma,> 25 µM
same,TGI,UACC-257 melanoma,> 25 µM
same,GI50,UACC-62 melanoma,> 25 µM
same,TGI,UACC-62 melanoma,> 25 µM
same,GI50,UO-31 renal,> 25 µM
same,TGI,UO-31 renal,> 25 µM
